One data set deals with galectins. The following applies: cited from earlier work.
The nature of data set [1]: Uptake over CACO-2 cell monolayers. In kind it is in vitro ADME. The following applies: human; for Papp A→B: apical to basolateral; for Papp B→A: basolateral to apical; for efflux ratio: read-out: Efflux ratio Papp (B > A/A > B). An excerpt: Uptake of a drug over the intestine can be predicted measuring the uptake over a monolayer of CACO-2 cells measured as Papp(10^-6 cm/s). […] By introduction of small alkyl substituents to the galactoside 2-OH such as compounds of formula (1) results in low or no efflux combined with a high uptake (Papp >10 10^-6 cm/s) over CACO-2 cells from the apical to the basolateral side of the cells.
For orientation: Caco-2 monolayers are a common model of the intestinal barrier.

In another data set the target is galectin-3 (Homo sapiens (Human), UniProt P17931). The experiment in a line: Fluorescence anisotropy assay, inhibition of galectin / fluorescein tagged saccharide probe interaction. In kind it is binding. The procedure:
Evaluation of Kd Values The affinity of Example 1-71 for galectins were determined by a fluorescence anisotropy assay where the compound was used as an inhibitor of the interaction between galectin and a fluorescein tagged saccharide probe as described Sörme, P., Kahl-Knutsson, B., Huflejt, M., Nilsson, U. J., and Leffler H. (2004) Fluorescence polarization as an analytical tool to evaluate galectin-ligand interactions. Anal. Biochem. 334: 36-47, (Sörme et al., 2004) and Monovalent interactions of Galectin-1 By Salomonsson, Emma; Larumbe, Amaia; Tejler, Johan; Tullberg, Erik; Rydberg, Hanna; Sundin, Anders; Khabut, Areej; Frejd, Torbjorn; Lobsanov, Yuri D.; Rini, James M.; et al, From Biochemistry (2010), 49(44), 9518-9532, (Salomonsson et al., 2010). […] 100 nM albumin was included as a carrier to prevent protein loss at such low concentration of galectin.
(Fluorescence polarisation rises when a labelled molecule tumbles more slowly, as on binding a larger partner.)

Chain of galectin-3 (P17931 whole entry): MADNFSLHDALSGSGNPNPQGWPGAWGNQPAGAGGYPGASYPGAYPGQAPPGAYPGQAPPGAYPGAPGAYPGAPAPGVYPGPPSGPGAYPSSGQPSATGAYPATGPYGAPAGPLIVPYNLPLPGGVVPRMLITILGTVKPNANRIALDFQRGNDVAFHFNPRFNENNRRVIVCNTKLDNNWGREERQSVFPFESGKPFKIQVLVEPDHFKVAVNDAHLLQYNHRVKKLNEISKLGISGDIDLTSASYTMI

Take `O=C[C@H](O)[C@@H](O)[C@@H](O)[C@H](O)CO` [D-galactose]: the “Affinity, times lower than lactose” value with galectins (relative to lactose) is reported as 50-100 times.

Usually Papp A→B stands for how fast a substance crosses the layer from the apical side. A higher Papp A→B goes with fast passage. A word on the Papp B→A: it is the apparent permeability from the basolateral to the apical side of a cell layer. In general, Kd refers to the free concentration of one partner at which half of the binding sites on the other are occupied at equilibrium, for simple one-to-one binding. Consider `CO[C@@H]1[C@@H](n2cc(-c3cc(F)c(F)c(F)c3)nn2)[C@@H](O)[C@@H](CO)O[C@@H]1Sc1cncc(Br)c1` [Example 1, 5-Bromopyridin-3-yl 3-deoxy-3-[4-(3,4,5-trifluorophenyl)-1H-1,2,3-triazol-1-yl]-2-O-methyl-1-thio-α-D-galactopyranoside], for which, in data set [1], the Papp A→B turned out to be 30 ×10⁻⁶ cm/s, the Papp B→A worked out at 38 ×10⁻⁶ cm/s and the efflux ratio is 1.2. Moreover, on galectin-3, the Kd was determined as 25 nM.

With `Cc1ccc(-c2cn([C@@H]3C(O)[C@@H](Sc4cc(Cl)cnc4C#N)OC(CO)[C@@H]3O)nn2)cc1F` (some centres unmarked), in data set [1], the Papp A→B stood at 3 ×10⁻⁶ cm/s, the Papp B→A came out at 30 ×10⁻⁶ cm/s and the efflux ratio came out at 10.

Consider `CO[C@@H]1[C@@H](n2cc(-c3ccc(C)c(F)c3)nn2)[C@@H](O)[C@@H](CO)O[C@@H]1Sc1cncc(Br)c1` [Example 36, 5-Bromopyridin-3-yl 3-deoxy-3-[4-(3-fluoro-4-methylphenyl)-1H-1,2,3-triazol-1-yl]-2-O-methyl-1-thio-α-D-galactopyranoside], for which, in data set [1], the Papp A→B stood at 28 ×10⁻⁶ cm/s, the Papp B→A turned out to be 32 ×10⁻⁶ cm/s and the efflux ratio worked out at 1.1. The same molecule came in with a Kd at galectin-3 of 26 nM.

With `CO[C@@H]1[C@@H](n2cc(-c3ccc(C)c(F)n3)nn2)[C@@H](O)[C@@H](CO)O[C@@H]1Sc1cncc(Cl)c1` [Example 43, 5-Chloropyridin-3-yl 3-deoxy-3-[4-(6-fluoro-5-methylpyridin-2-yl)-1H-1,2,3-triazol-1-yl]-2-O-methyl-1-thio-α-D-galactopyranoside], in data set [1], the Papp A→B turned out to be 26 ×10⁻⁶ cm/s, the Papp B→A was determined as 34 ×10⁻⁶ cm/s and the efflux ratio was 1.3. At galectin-3, this molecule registered a Kd of 39 nM.

`OCC1O[C@H](Sc2cncc(Cl)c2)C(O)[C@@H](n2cc(-c3cc(F)c(F)c(F)c3)nn2)[C@H]1O` (some centres unmarked): in data set [1], the Papp A→B worked out at 4 ×10⁻⁶ cm/s, the Papp B→A is 36 ×10⁻⁶ cm/s and the efflux ratio was 9.

For `OC[C@H]1O[C@@H](O[C@H]2[C@H](O)[C@@H](O)C(O)O[C@@H]2CO)[C@H](O)[C@@H](O)[C@H]1O` (some centres unmarked) [lactose], the Kd on galectins (Leffler 2001, Leffler et al. 2004, read-out: Kd, all galectins) is 500 to 1000 µM.

`N#Cc1ncc(Cl)cc1S[C@H]1OC(CO)[C@H](O)[C@H](n2cc(-c3cc(F)c(Cl)c(F)c3)nn2)C1O` (some centres unmarked): in data set [1], the Papp A→B turned out to be 5 ×10⁻⁶ cm/s, the Papp B→A was determined as 46 ×10⁻⁶ cm/s and the efflux ratio worked out at 9.

For `CO[C@@H]1[C@@H](n2cc(-c3ccc(C)c(F)c3)nn2)[C@@H](O)[C@@H](CO)O[C@@H]1Sc1cncc(Cl)c1` [Example 35, 5-Chloropyridin-3-yl 3-deoxy-3-[4-(3-fluoro-4-methylphenyl)-1H-1,2,3-triazol-1-yl]-2-O-methyl-1-thio-α-D-galactopyranoside], in data set [1], the Papp A→B stood at 31 ×10⁻⁶ cm/s, the Papp B→A came to 45 ×10⁻⁶ cm/s and the efflux ratio is 1.4. Moreover, on galectin-3, the affinity, expressed as Kd, was 45 nM.

For `CO[C@@H]1[C@@H](n2cc(-c3ccc(C)c(F)c3)nn2)[C@@H](O)[C@@H](CO)O[C@@H]1Sc1cc(Cl)cnc1C#N` [Example 13, 5-Chloro-2-cyanopyridin-3-yl 3-deoxy-3-[4-(3-fluoro-4-methylphenyl)-1H-1,2,3-triazol-1-yl]-2-O-methyl-1-thio-α-D-galactopyranoside], in data set [1], the apparent permeability from apical to basolateral (Papp A→B) came to 18 ×10⁻⁶ cm/s, the Papp B→A turned out to be 23 ×10⁻⁶ cm/s and the efflux ratio was 1.3. For the same molecule, binding on galectin-3 was put at a Kd of 14 nM.

As for `C#Cc1cncc(S[C@H]2O[C@H](CO)[C@H](O)[C@H](n3cc(-c4cc(F)c(Cl)c(F)c4)nn3)[C@H]2OC)c1` [Example 54, 5-Ethynylpyridin-3-yl 3-[4-(4-chloro-3,5-difluorophenyl)-1H-1,2,3-triazol-1-yl]-3-deoxy-2-O-methyl-1-thio-α-D-galactopyranoside], the Kd on galectin-3 turned out to be 35 nM.

Turning to `COC1[C@@H](Sc2cc(Cl)ccc2C(=O)N(C)C)OC(CO)[C@H](O)[C@@H]1n1cc(-c2cc(F)c(F)c(F)c2)nn1` (stereo partly drawn) [Example 3, 4-Chloro-N,N-dimethyl-benzamide-2-yl 3-deoxy-3-[4-(3,4,5-trifluorophenyl)-1H-1,2,3-triazol-1-yl]-2-O-methyl-1-thio-α-D-galactopyranoside], the Kd at galectin-3 amounted to 8 nM.

Take `CCO[C@@H]1[C@@H](n2cc(-c3cc(F)c(F)c(F)c3)nn2)[C@@H](O)[C@@H](CO)O[C@@H]1Sc1cc(Br)ccc1C(=O)N1CCC1` [Example 65, 2-(N-azetidinyl-carbonyl)-5-bromophenyl 3-deoxy-3-[4-(3,4,5-trifluorophenyl)-1H-1,2,3-triazol-1-yl]-2-O-ethyl-1-thio-α-D-galactopyranoside]: the Kd on galectin-3 came to 18 nM.

As for `CO[C@@H]1[C@@H](n2cc(-c3cc(F)c(F)c(F)c3)nn2)[C@@H](O)[C@@H](CO)O[C@@H]1Sc1cc(Cl)cnc1C#N` [Example 46, 5-Chloro-2-cyanopyridin-3-yl 3-deoxy-3-[4-(3,4,5-trifluorophenyl)-1H-1,2,3-triazol-1-yl]-2-O-methyl-1-thio-α-D-galactopyranoside], the Kd at galectin-3 was found to be 35 nM.

The record behind these values is patent publication US11447517B2, “Galactoside inhibitor of galectins” (GALECTO BIOTECH AB, priority 2018, dated 2022).
